In patent US20230181499A1, “Hydroxyureamethyl-Acylfulvene for Treating Brain Cancer or CNS Cancer” (Lantern Pharma Inc., priority 2020, published 2023):

Tests used:
blood-brain barrier = experiment: Neuromics in vitro 3D blood-brain barrier model (brain endothelial cells, pericytes, astrocytes); format: in vitro ADME, human; details: for blood-brain barrier penetration (in words): in vitro model system
Excerpt: (§1) To evaluate the in vivo therapeutic activity of Hydroxyureamethyl-acylfulvene in mice bearing glioblastoma U87-SC cells (without any drug treatment in vitro) were inoculated subcutaneously.
(§2) By way of background, the physically, metabolically and immunologically privileged status of the brain presents diagnostic and therapeutic limitations along with treatment-related neurotoxicity issues. A critical property of any drug for GBM would be its ability to penetrate the blood-brain barrier (BBB). […] In the highly representative Neuromics in vitro 3D model that closely recapitulates the human blood-brain barrier, transport properties of the blood-brain barrier are reflected due to the formation of tight junctions, higher expression of specific carriers, or great cell viability. This 3D in vitro model of the blood-brain barrier created by co-culturing brain endothelial cells with pericytes and astrocytes layered in an insert, improves endothelial cell polarization and enhances the formation of tight junctions, provides better endothelial cell-to-cell contact that is important for barrier development, and prevents the dilution of secreted neurotrophic factors. These conditions collectively lead to the development of an in vitro model that can truly mimic the blood-brain barrier. This assay leverages the novel 3D blood-brain barrier model that allows studying both compound transport across the barrier as well as the effect of compounds on the structure and function of the blood-brain barrier. Along with LP-184 and TMZ, the current standard of care chemotherapeutic for GBM, we also compared the behavior of known positive and negative control agents Antipyrine and Cyclosporin A respectively as benchmarks. […] Apparent blood brain barrier permeability measured for TMZ was 1.72*10-4 cm/s at 30 minutes and for LP-184 was 1.53*10-4 cm/s at 30 minutes, as illustrated in the following graph.

[1] = system: glioblastoma U87-SC cells; experiment: U87 subcutaneous xenograft tumor model of GBM; format: in vivo, mice; details: 4 every other day intravenous doses at 4 mg/kg
Excerpt: as §1

GBM neurospheres (M1123) = experiment: Mice implanted with GBM neurospheres (M1123), subcutaneous tumor model; format: in vivo
[2] = Neuromics in vitro 3D blood-brain barrier model (brain endothelial cells, pericytes, astrocytes); format: in vitro ADME, human; details: human
Excerpt: as §1, §2

Question: For `CC1=C(CN(O)C(N)=O)C2=C(C)C3(CC3)[C@@](C)(O)C(=O)C2=C1` [LP-184, hydroxyureamethyl-acylfulvene], which blood-brain barrier integrity (blood-brain barrier; FIG. 3) is on record?
Answer: not compromised

Question: What about the “impact on cell viability” value (blood-brain barrier; blood-brain barrier model, FIG. 3/4) of the same compound?
Answer: insignificant impact on cell viability

Question: And the “blood-brain barrier penetration (in words)” value (blood-brain barrier)?
Answer: as effective as TMZ in penetrating the blood-brain barrier

Question: What about the “blood-brain barrier penetration (in words)” value (blood-brain barrier; listed as Hydroxyureamethyl-acylfulvene) of the same compound?
Answer: shown to cross the blood-brain barrier

Question: What about the tumor response [1] of the same compound?
Answer: complete tumor regression

Question: What about the “mice with no measurable tumors 12 days post the last dosing” value ([1]; 5 mice treated) of the same compound?
Answer: all 5 mice

Question: And the tumor response (GBM neurospheres (M1123); 4 every other day intravenous doses at 4 mg/kg)?
Answer: complete tumor regression

Question: What about the “mice with no measurable tumor after 12 days of the last dose” value (GBM neurospheres (M1123); 4 every other day intravenous doses at 4 mg/kg, four mice) of the same compound?
Answer: Three of four mice

Question: And the “tumor volume relative to vehicle-treated control mice (physical observation)” value (GBM neurospheres (M1123); FIG. 7)?
Answer: clear tumor growth inhibition

Question: Which Papp at 30 min [2] does the source give for `Cn1nnc2c(C(N)=O)ncn2c1=O` [TMZ, temozolomide, reference compound] here?
Answer: 172 ×10⁻⁶ cm/s
